pEC50, pKd: −log10 of the molar value. Like-named read-outs stand apart in the source and are kept apart here.
Tests used:
VSV-EBOV-GP = experiment: microbe, parasite or virus in culture; format: cell-based, Ebola virus (EBOV/H.sap-tc/COD/76/Yambuku-Mayinga); conditions: for inhibition at 0.2 µM: read-out: Inhibition% (200nM)
Vero cells = conditions: for cytotoxicity: African green monkey
in vitro = conditions: African green monkey
EBOV-GP = EBOV-GP (Zaire ebolavirus, UniProt Q05320); experiment: biochemical; format: binding, Zaire EBOV (strain Mayinga-76)
Sequence of EBOV-GP (Q05320 33-650 limits assumed): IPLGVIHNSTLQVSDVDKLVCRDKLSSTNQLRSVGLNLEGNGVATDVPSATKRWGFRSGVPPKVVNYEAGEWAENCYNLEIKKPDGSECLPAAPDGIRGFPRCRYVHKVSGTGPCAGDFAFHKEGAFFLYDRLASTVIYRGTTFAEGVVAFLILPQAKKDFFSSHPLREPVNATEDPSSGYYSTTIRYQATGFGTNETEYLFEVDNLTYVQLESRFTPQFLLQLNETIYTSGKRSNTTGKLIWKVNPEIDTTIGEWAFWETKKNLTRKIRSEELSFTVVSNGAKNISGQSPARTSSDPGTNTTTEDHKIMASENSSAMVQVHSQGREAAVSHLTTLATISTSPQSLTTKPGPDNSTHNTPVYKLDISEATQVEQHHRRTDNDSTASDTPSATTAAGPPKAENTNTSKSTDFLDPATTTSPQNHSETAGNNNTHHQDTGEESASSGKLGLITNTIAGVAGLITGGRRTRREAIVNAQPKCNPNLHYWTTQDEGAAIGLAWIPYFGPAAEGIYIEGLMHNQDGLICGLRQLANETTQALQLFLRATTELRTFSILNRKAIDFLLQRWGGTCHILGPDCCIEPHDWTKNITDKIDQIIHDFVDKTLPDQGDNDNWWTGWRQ

VSV-G = format: cell-based, vesicular stomatitis virus
VSV-LASV-GP = format: cell-based, Lassa virus (LASV) (Josiah)

SMILES | pEC50 (VSV-EBOV-GP; Zaire ebolavirus, Vero) | SI (Selectivity index = CC50/EC50) (Vero cells) | CC50 (in vitro) | further results
CC/C(=C(\c1ccccc1)c1ccc(OCCN(C)C)cc1)c1cccc(NS(=O)(=O)N[C@@H]2CCN(C)C2)c1 [Compound 11] | 6.24 | 6.3 | 3600 nM | –
CC/C(=C(\c1ccccc1)c1ccc(OCCN(C)C)cc1)c1cccc(NS(=O)(=O)NC2CCN(CC)C2)c1 (centres unmarked) [Compound 12] | 6.08 | 4.8 | 4000 nM | –
CC/C(=C(\c1ccccc1)c1ccc(OCCN(C)C)cc1)c1ccc(N=S(=O)(F)N(C)Cc2n[nH]c(=O)[nH]2)cc1 (centres unmarked) [Compound E02, CC/C(=C(\c1ccccc1)c1ccc(OCCN(C)C)cc1)c1ccc(N=S(=O)(F)N(C)Cc2n[nH]c(=O)[nH]2)cc1] | – | – | – | inhibition at 0.2 µM (VSV-EBOV-GP; Zaire ebolavirus, Vero): 11%
CC/C(=C(\c1ccccc1)c1ccc(OCCN(C)C)cc1)c1cccc(NS(=O)(=O)NC2(C)CCOC2)c1 (centres unmarked) [Compound 7] | 6.57 | 31 | 8400 nM | –
CC/C(=C(\c1ccccc1)c1ccc(OCCN(C)C)cc1)c1cccc(NS(=O)(=O)N[C@@H]2CCOC2)c1 [Compound 4R] | 6.45 | 43 | 15000 nM | pKd (EBOV-GP): 5.19; cytotoxicity (Vero cells): did not show significant cytotoxicity below 10 µM
CC/C(=C(\c1ccccc1)c1ccc(OCCN(C)C)cc1)c1cccc(NS(=O)(=O)NC2COCC2C)c1 (centres unmarked) [Compound 6] | 6.70 | 70 | 14000 nM | –
CC/C(=C(\c1ccccc1)c1ccc(OCCN(C)C)cc1)c1cccc(NS(=O)(=O)NC2CCOC2)c1 (centres unmarked) [Compound 4] | 6.62 | – | – | pEC50 (VSV-EBOV-GP): 6.62
CC/C(=C(\c1ccccc1)c1ccc(OCCN(C)C)cc1)c1cccc(NS(=O)(=O)N[C@H]2CCOC2)c1 [Compound 4S] | 7.04 | 150 | 14000 nM | pKd (EBOV-GP): 6.20; affinity enhancement vs tamoxifen (EBOV-GP): 50 fold; inhibition of VLPs displaying VSV-G (VSV-G): selective inhibition of VSV-EBOV-GP but not VSV-G or VSV-LASV-GP; inhibition of VSV-LASV-GP (VSV-LASV-GP): selective inhibition of VSV-EBOV-GP but not VSV-G or VSV-LASV-GP; cytotoxicity (Vero cells): did not show significant cytotoxicity below 10 µM
CC/C(=C(\c1ccccc1)c1ccc(OCCN(C)C)cc1)c1cccc(NS(=O)(=O)NCc2ncon2)c1 [Compound 3] | – | – | – | pEC50 (VSV-EBOV-GP; Zaire ebolavirus, Vero, 16 h): 6.26
CC/C(=C(\c1ccccc1)c1ccc(OCCN(C)C)cc1)c1cccc(NS(=O)(=O)NC2CCN(CCCO)C2)c1 (centres unmarked) [Compound 15] | 5.76 | 4.5 | 7700 nM | –
CC/C(=C(\c1ccccc1)c1ccc(OCCN(C)C)cc1)c1ccc(NS(=O)(=O)NC(C)c2n[nH]c(=O)[nH]2)cc1 (centres unmarked) [Compound F02, CC/C(=C(\c1ccccc1)c1ccc(OCCN(C)C)cc1)c1ccc(NS(=O)(=O)NC(C)c2n[nH]c(=O)[nH]2)cc1] | – | – | – | inhibition at 0.2 µM (VSV-EBOV-GP; Zaire ebolavirus, Vero): 14.1%
CC/C(=C(\c1ccccc1)c1ccc(OCCN(C)C)cc1)c1ccc(N=S(=O)(F)N(C)Cc2ccn[nH]2)cc1 (centres unmarked) [Compound C02, CC/C(=C(\c1ccccc1)c1ccc(OCCN(C)C)cc1)c1ccc(N=S(=O)(F)N(C)Cc2ccn[nH]2)cc1] | – | – | – | inhibition at 0.2 µM (VSV-EBOV-GP; Zaire ebolavirus, Vero): 2.05%
CC/C(=C(\c1ccccc1)c1ccc(OCCN(C)C)cc1)c1cccc(NS(=O)(=O)NC2COC2)c1 [Compound 5] | 6.81 | 44 | 6800 nM | –
CC/C(=C(\c1ccccc1)c1ccc(OCCN(C)C)cc1)c1cccc(N=S(=O)(F)F)c1 [Compound 1] | – | – | – | pEC50 (VSV-EBOV-GP; Zaire ebolavirus, Vero, 16 h): 6.42; cytotoxicity (Vero cells): did not exhibit cytotoxicity up to 10 µM
CC/C(=C(\c1ccccc1)c1ccc(OCCN(C)C)cc1)c1cccc(NS(=O)(=O)N[C@H]2CCN(C(CC)CC)C2)c1 [Compound 13] | 6.09 | 6.5 | 5300 nM | –
CC/C(=C(\c1ccccc1)c1ccc(OCCN(C)C)cc1)c1cccc(NS(=O)(=O)N[C@H]2CCN(C)C2)c1 [Compound 10] | 6.18 | 4.5 | 3000 nM | –
CC/C(=C(\c1ccccc1)c1ccc(OCCN(C)C)cc1)c1cccc(NS(=O)(=O)NC2CCCOC2)c1 (centres unmarked) [Compound 2] | – | – | – | pEC50 (VSV-EBOV-GP; Zaire ebolavirus, Vero, 16 h): 6.33
CC/C(=C(\c1ccccc1)c1ccc(OCCN(C)C)cc1)c1ccccc1 [Tamoxifen, tamoxifen, reference compound] | – | – | – | inhibition of VLPs displaying VSV-G (VSV-G): selective inhibition of VSV-EBOV-GP but not VSV-G or VSV-LASV-GP; inhibition of VSV-LASV-GP (VSV-LASV-GP): selective inhibition of VSV-EBOV-GP but not VSV-G or VSV-LASV-GP
CC/C(=C(\c1ccccc1)c1ccc(OCCN(C)C)cc1)c1cccc(NS(=O)(=O)NC2CCN(C(C)C)C2)c1 (centres unmarked) [Compound 9] | 6.10 | 4.3 | 3400 nM | –
CC/C(=C(\c1ccccc1)c1ccc(OCCN(C)C)cc1)c1ccc(NS(=O)(=O)NCc2n[nH]c(=O)[nH]2)cc1 [Compound D02, CC/C(=C(\c1ccccc1)c1ccc(OCCN(C)C)cc1)c1ccc(NS(=O)(=O)NCc2n[nH]c(=O)[nH]2)cc1] | – | – | – | inhibition at 0.2 µM (VSV-EBOV-GP; Zaire ebolavirus, Vero): -0.485%
CC/C(=C(\c1ccccc1)c1ccc(OCCN(C)C)cc1)c1cccc(NS(=O)(=O)NC2CCN(C)C2)c1 (centres unmarked) [Compound 8] | 6.84 | 14 | 2000 nM | –
CCCN1CCC(NS(=O)(=O)Nc2cccc(/C(CC)=C(/c3ccccc3)c3ccc(OCCN(C)C)cc3)c2)C1 (centres unmarked) [Compound 14] | 6.21 | 5.0 | 3100 nM | –
CC/C(=C(\c1ccccc1)c1ccc(OCCN(C)C)cc1)c1ccc(NS(=O)(=O)NCc2ccn[nH]2)cc1 [Compound B02, CC/C(=C(\c1ccccc1)c1ccc(OCCN(C)C)cc1)c1ccc(NS(=O)(=O)NCc2ccn[nH]2)cc1] | – | – | – | inhibition at 0.2 µM (VSV-EBOV-GP; Zaire ebolavirus, Vero): 4.27%

Reference: PMC12066687 (Frontiers in Immunology, 2025)
